In ChEMBL document CHEMBL1201862, “PubChem BioAssay data set” (2004):
Active and inactive are the calls of the source.

Columns and labels:
[1] = viability loss in HeLa cells – cytotoxicity control for MgcRacGAP inhibitor project, dose response (AID 624300); assay type: functional
[2] = biological target: T1, Rac GTPase-activating protein 1 (Homo sapiens, UniProt Q9H0H5); experiment: blockers of MgcRacGAP-driven Rac1 GTP hydrolysis – biochemical, ADP Hunter fluorescence, primary and confirmatory, confirmation (AID 624330); assay type: functional
T1 sequence (Q9H0H5 whole entry): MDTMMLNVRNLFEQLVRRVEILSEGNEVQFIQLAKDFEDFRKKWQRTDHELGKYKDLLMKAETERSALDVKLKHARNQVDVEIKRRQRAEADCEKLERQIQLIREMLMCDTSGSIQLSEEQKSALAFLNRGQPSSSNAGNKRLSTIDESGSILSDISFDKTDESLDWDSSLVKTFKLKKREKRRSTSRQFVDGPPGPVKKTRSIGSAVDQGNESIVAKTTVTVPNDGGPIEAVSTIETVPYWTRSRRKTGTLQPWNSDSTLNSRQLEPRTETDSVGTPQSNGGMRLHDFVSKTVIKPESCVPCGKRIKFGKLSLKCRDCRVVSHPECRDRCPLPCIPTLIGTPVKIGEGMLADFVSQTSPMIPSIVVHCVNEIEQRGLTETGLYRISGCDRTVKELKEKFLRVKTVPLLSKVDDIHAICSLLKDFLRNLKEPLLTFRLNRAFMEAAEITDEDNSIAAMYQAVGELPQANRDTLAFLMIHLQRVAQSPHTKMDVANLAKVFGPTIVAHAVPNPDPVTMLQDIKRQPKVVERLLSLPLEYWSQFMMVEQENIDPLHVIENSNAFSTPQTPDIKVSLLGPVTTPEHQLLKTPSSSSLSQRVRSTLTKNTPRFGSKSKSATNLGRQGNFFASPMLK

[3] = blockers of HIV-1 envelope-mediated cell-cell fusion – cherry-pick, dose response (AID 652057); assay type: functional, cell-based
[4] = blockers of HIV-1 ZM109 envelope-driven cell-cell fusion – HeLa effector, CEM target cells, luciferase, cherry-pick, dose response (AID 652058); assay type: functional, cell-based;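 also: luciferase signal from HIV-1 Env mediated cell-cell fusion of effector and target cells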
[5] = off-target signal loss in HeLa-CEM21 co-culture – HeLa F-luc CTL cells, cherry-picked, counter-screen for HIV-1 Env fusion inhibitor project, dose response (AID 652040); assay type: functional, cell-based;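 also: potency for signal decrease marking cytotoxic or nonspecific inhibition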
[6] = HIV-1 AD8 envelope cell-cell fusion blockers – cherry-pick, dose response (AID 652062); assay type: functional, cell-based;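 also: luciferase signal from cell-cell fusion driven by HIV-1 clade B AD8 Env; potency is for inhibitors of fusion seen as a drop in luminescence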
Fatty acid synthase [7] = biological target: T2, Fatty acid synthase (Homo sapiens, UniProt P49327); experiment: inhibition of human FAS-TE enzyme activity – biochemical, endpoint fluorescence intensity, uHTS hits, dose response (AID 624327); assay type: functional;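 also: fluorescence from hydrolysis of an O-methyl fluorescein acyl ester substrate by the enzyme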
T2 sequence (P49327 whole entry): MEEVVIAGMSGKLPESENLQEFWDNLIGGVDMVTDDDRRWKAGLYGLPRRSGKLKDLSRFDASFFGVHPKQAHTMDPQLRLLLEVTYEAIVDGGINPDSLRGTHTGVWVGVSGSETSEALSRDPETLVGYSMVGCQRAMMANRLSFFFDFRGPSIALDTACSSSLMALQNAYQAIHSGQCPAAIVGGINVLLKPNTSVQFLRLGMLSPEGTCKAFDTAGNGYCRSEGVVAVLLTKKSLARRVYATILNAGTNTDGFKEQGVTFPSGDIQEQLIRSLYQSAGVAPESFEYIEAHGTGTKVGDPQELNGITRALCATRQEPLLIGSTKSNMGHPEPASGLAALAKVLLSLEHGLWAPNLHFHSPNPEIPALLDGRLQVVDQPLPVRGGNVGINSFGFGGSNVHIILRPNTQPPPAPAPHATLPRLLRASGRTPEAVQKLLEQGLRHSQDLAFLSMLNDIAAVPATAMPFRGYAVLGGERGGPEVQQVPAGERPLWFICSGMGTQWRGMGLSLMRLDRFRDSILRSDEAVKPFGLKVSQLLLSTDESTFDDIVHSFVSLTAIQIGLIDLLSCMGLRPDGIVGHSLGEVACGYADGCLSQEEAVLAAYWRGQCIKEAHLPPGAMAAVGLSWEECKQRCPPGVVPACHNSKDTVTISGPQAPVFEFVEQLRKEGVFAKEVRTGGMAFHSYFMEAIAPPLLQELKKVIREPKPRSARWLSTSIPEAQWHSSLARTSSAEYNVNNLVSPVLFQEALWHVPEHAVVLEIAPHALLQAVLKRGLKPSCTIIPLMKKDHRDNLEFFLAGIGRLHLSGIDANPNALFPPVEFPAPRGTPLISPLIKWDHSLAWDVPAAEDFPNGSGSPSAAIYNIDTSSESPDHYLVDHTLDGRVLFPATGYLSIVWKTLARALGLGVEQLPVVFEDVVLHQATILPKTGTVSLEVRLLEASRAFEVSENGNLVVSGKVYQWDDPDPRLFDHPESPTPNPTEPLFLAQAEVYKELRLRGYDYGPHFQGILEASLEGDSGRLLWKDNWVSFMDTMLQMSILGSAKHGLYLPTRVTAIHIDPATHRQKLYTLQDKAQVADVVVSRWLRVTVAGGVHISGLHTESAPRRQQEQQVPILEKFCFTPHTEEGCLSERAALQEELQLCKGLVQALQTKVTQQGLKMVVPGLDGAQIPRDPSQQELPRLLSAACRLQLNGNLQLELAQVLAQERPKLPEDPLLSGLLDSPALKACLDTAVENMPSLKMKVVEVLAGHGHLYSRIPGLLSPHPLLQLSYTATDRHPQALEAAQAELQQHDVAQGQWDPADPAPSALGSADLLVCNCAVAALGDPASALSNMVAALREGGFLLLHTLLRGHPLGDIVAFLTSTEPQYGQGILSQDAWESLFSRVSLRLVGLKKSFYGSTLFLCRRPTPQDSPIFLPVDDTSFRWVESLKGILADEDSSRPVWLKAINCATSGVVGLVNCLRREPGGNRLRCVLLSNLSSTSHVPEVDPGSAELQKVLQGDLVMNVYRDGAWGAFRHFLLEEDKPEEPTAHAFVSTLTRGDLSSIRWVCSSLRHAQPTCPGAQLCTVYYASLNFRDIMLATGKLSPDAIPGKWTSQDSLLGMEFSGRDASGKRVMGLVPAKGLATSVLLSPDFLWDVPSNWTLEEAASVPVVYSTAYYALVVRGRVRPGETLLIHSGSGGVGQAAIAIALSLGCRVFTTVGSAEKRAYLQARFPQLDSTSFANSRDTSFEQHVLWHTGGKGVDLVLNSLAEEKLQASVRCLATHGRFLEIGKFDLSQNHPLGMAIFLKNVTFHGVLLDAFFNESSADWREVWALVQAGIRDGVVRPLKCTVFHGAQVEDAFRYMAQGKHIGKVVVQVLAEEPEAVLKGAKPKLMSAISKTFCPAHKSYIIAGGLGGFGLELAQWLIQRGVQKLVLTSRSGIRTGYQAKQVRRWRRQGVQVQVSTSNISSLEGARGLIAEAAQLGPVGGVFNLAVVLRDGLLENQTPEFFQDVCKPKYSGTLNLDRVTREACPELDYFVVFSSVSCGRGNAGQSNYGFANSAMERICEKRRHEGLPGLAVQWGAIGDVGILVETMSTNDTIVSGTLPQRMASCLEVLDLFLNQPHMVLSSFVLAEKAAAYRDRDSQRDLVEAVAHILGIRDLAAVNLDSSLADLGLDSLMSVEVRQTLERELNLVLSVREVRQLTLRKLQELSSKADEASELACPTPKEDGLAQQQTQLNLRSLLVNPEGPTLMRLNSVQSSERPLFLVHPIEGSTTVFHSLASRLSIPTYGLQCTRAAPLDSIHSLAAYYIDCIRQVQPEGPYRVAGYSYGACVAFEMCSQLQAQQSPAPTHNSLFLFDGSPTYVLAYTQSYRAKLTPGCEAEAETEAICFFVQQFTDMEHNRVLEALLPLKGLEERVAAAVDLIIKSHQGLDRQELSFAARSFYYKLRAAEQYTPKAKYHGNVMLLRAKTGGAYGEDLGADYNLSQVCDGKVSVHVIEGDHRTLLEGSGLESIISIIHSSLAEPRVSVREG

Fatty acid synthase [8] = biological target: T2, Fatty acid synthase; experiment: inhibition of human FAS-TE enzyme activity – biochemical, kinetic fluorescence intensity, dose response (AID 624326); assay type: functional;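 also: rate of fluorescence rise from hydrolysis of a fluorogenic O-methyl fluorescein ester substrate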
BJ [9] = experiment: BJ-TERT fibroblast viability loss – cell-based, RAS-independent, luminescence, dose response (AID 1933); assay type: functional; settings: Homo sapiens
BJ [10] = experiment: cells; assay type: functional, cell-based; settings: Homo sapiens
[11] = biological target: Luciferin 4-monooxygenase (Photinus pyralis, UniProt P08659); experiment: inhibition of purified Photinus pyralis luciferase – biochemical, luminescence, dose response (AID 1891)
Luciferin 4-monooxygenase, sequence (P08659 whole entry): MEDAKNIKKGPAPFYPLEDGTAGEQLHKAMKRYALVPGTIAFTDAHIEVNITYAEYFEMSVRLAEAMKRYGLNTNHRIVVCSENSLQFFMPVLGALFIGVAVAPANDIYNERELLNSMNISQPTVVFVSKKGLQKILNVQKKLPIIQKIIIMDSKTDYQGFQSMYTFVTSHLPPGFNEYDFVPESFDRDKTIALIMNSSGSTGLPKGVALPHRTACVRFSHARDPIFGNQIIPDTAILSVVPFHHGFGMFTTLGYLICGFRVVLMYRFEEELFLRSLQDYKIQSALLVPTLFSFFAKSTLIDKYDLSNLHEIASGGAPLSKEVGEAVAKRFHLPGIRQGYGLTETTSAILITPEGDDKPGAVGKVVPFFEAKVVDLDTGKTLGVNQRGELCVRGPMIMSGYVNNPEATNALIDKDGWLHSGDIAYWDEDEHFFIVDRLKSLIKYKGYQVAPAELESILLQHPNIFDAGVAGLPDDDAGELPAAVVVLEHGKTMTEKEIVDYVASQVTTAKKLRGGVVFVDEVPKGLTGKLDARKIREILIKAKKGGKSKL

[12] = Luminescence Cell-Based Dose Confirmation HTS to Identify Inhibitors of Platelet Dense Granule Release. [Related pubchem assays: 1663 (Primary HTS), 1678 (Summary of Project)]; assay type: functional
BJ [13] = experiment: BJ-TERT-LT-ST fibroblast viability loss – cell-based, RAS-independent, luminescence, dose response (AID 1935); assay type: functional; settings: Homo sapiens;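 also: BJ fibroblasts immortalized with TERT plus LT and ST oncogenes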
[14] = DRD fibroblast viability loss – cell-based, non-viral oncogenic, luminescence, dose response (AID 1934); assay type: functional; settings: Homo sapiens
HEK293 = experiment: EBV LMP1 TES2 canonical NF-kB signalling blockers – cell-based, HEK293, luciferase, cherry-pick, dose response (AID 588343); assay type: functional; settings: Homo sapiens
[15] = test system: Streptococcus sp. 'group A'; experiment: Streptococcus pyogenes SK(-)GAS viability under kanamycin – luminescence, BacTiterGlo, confirmation, counter-screen for streptokinase expression inhibitor project, dose response (AID 1900); assay type: functional, organism-based
Streptococcus = experiment: GAS UMAA2166 growth inhibition – luminescence, BacTiterGlo, counter-screen for streptokinase expression inhibitor project, dose response (AID 1915); assay type: functional, organism-based;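 also: potency for reduction of bacterial viability or growth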
CAAX prenyl protease 2 = biological target: T3, CAAX prenyl protease 2 (Homo sapiens, UniProt Q9Y256); experiment: inhibition of Ras-converting CAAX protease Rce1 – biochemical, yeast membranes, quenched-peptide fluorescence, cherry-pick, dose response (AID 588849)
T3 sequence (Q9Y256 whole entry): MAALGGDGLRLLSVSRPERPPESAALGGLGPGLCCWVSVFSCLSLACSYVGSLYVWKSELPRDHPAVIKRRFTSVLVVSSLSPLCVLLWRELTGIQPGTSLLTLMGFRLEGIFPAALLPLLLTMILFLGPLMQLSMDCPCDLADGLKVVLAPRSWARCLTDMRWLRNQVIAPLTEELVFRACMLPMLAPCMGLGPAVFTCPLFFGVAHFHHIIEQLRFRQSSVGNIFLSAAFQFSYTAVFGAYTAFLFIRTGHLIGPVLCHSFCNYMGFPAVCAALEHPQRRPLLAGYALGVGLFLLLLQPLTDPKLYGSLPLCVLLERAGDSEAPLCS

[16] = biological target: Voltage-dependent T-type calcium channel subunit alpha-1H (Homo sapiens, UniProt O95180); assay type: functional;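 also: channel activity triggered by adding a high calcium stimulation buffer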
Cysteine protease ATG4B = biological target: T4, Cysteine protease ATG4B (Homo sapiens, UniProt Q9Y4P1); assay type: functional;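 also: Fluorescence-based dose-response confirmation assay measuring inhibition of ATG4B activity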
T4 sequence (Q9Y4P1 whole entry): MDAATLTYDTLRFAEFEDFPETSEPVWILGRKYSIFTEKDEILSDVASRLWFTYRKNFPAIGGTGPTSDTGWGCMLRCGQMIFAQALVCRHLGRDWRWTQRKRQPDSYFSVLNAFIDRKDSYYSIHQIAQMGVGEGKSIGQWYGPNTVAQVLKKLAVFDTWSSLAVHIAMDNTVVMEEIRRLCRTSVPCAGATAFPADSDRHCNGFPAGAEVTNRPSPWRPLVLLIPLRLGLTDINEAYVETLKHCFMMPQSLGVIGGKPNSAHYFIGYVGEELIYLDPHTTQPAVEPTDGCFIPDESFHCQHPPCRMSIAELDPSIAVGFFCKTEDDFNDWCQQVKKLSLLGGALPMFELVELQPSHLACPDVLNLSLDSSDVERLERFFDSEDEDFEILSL

Phospholipase A2 = Phospholipase A2 (Homo sapiens, UniProt P04054); assay type: functional;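 also: confirmatory dose-response counterscreen on phospholipase A2, testing hits that came from an ultra-high-throughput screen for ATG4B inhibitors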
Phospholipase A2, sequence (P04054 whole entry): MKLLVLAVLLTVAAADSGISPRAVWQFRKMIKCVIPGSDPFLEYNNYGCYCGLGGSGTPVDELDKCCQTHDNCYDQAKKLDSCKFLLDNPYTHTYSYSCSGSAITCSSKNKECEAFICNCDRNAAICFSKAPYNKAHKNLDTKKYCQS

With `CCN(CC)c1ccc(Nc2nc(Cl)ncc2Br)cc1` the CC50 [1] was 100 µM (active) and the IC50 [2] was 50.3 µM (active).

For `COc1ccc(C(O)(C2CCCCC2)C(CN2CCOCC2)c2ccccc2)cc1` (centres undefined), the AC50 [3] was 5.2 µM (active), the AC50 [4] was 1.09 µM (active) and the AC50 [5] was 7.26 µM (active). The AC50 [6] was 11.1 µM (active).

For `CC(Cc1ccccc1)=NNS(=O)(=O)c1ccc([N+](=O)[O-])cc1`, the IC50 (Fatty acid synthase [7]) was 9.15 µM (active) and the IC50 (Fatty acid synthase [8]) was 12.7 µM (active).

For `Cc1ccc(S(=O)(=O)/N=C(\Sc2ccccc2)c2ccccc2)cc1`, the IC50 (Fatty acid synthase [7]) was 11 µM (active) and the IC50 (Fatty acid synthase [8]) was 54 µM (inactive).

With `Cn1c(/C=C/c2ccccc2)nc2ccccc21` the EC50 (BJ [9]) was 10.8 µM (active), the EC50 (BJ [10]) was 7.95 µM (active) and the EC50 [11] was 1.09 µM (active). The EC50 [12] was 1.89 µM (active), the EC50 (BJ [13]) was 18.9 µM (active) and the EC50 [14] was 8.49 µM (active). For the same compound, the AC50 (HEK293) was 3.81 µM (active).

In the case of `C[C@H]1COc2c(N3CCN(C)CC3)c(F)cc3c(=O)c(C(=O)O)cn1c23` [LEVOFLOXACIN], the EC50 [15] was 2.1 µM (active), the EC50 (Streptococcus) was 0.911 µM (active) and the AC50 (CAAX prenyl protease 2) was 41 µM (active).

With `CC(C)Oc1ccc(C(CC(=O)NCc2ccco2)c2ccccc2)cc1` (centres undefined) the EC50 [16] was 4.77 µM (active), the IC50 (Cysteine protease ATG4B) was 16.4 µM (active) and the IC50 (Phospholipase A2) was 11.6 µM (active).

With `c1ccc(CCCN2CCN(CCOC(c3ccccc3)c3ccccc3)CC2)cc1` the AC50 (HEK293) was 23.8 µM (active).
